Tests used:
[1] = Visual cytotoxicity in BSC-1 cells; type: cell-based, African green monkey; details: monkey, visual cytotoxicity at time of HSV-1 plaque enumeration, read-out: 50% Inhibitory Concentration, Cytotoxicity BSC
Source text: Cytotoxicity produced in HFF and BSC-1 cells was estimated by visual scoring of cells not affected by virus infection in the HCMV and HSV-1 plaque reduction assays. Cytopathology was estimated at 35- and 60-fold magnification and scored on a zero to four plus basis. Wells were scored on the day of staining.

HCMV DNA synthesis = HCMV DNA synthesis by dot-blot hybridization; type: cell-based, human cytomegalovirus; details: Human betaherpesvirus 5; Table 2; read-out: 50% Inhibitory Concentration, HCMV DNA Synthesis
Description: The amount of HCMV DNA synthesis was determined in two types of experiments: (a) as an integral part of HCMV titer (yield) reduction experiments and (b) as separate experiments to determine only the amount of viral DNA synthesis in the absence or presence of test compounds.
HFF cells were planted in 25 cm^2 flasks and infected with HCMV as described in part 2 and incubated at 37° C. Before harvesting at selected times by the addition of 0.1 volume of 0.2M EDTA, an aliquot of medium was removed for determination of HCMV titer. After harvesting cells into the medium, aliquots were retained for determination of HCMV DNA by hybridization.
HFF cells were planted in 96-well cluster plates at 20,000 cell/well in 200 μl of growth medium [MEM(E)] with 1.1 gm/liter NaHCO3 and 10% fetal bovine serum. […]
Following hybridization, the membrane was washed sequentially in 100 ml 2×SSC at room temperature twice each for 5 minutes, 100 ml 2×SCC plus 1% SDS at 65° C. twice each for 30 minutes and then 100 ml 0.1×SSC at room temperature twice each for 30 minute. The membrane was dried at room temperature and each filtration spot was cut from the membrane and placed into 4 ml of toluene/DPO scintillant and hybridized label counted in a liquid scintillation spectrometer.

MCMV = test: Mortality of mice infected with murine cytomegalovirus; type: in vivo
Description: Compound UMJD 183 was tested in mice infected with murine cytomegalovirus (MCMV). This animal model has been recognized as having capabilities predictive of efficacy in humans.
Compound UMJD 183 and the drug ganciclovir (DHPG) were administered to groups of 15 mice each at doses and times of administration shown in Table 3. Each compound at all doses was administered intraperitoneally twice daily for five days beginning at either 6, 24 or 48 hours after virus inoculation. Animals were observed daily and the number dying each day recorded.
^a Animlas were treated i.p. twice daily for 5 days with the doses
stated above. Treatment was initiated at the times indicated following

[2] = 0.6 mg/kg i.p. twice daily, from 6 h
[3] = 0.6 mg/kg i.p. twice daily, from 24 h
[4] = 0.6 mg/kg i.p. twice daily, from 48 h
[5] = 1.9 mg/kg i.p. twice daily, from 6 h
[6] = 1.9 mg/kg i.p. twice daily, from 24 h
[7] = 1.9 mg/kg i.p. twice daily, from 48 h
[8] = 5.6 mg/kg i.p. twice daily, from 6 h
[9] = 5.6 mg/kg i.p. twice daily, from 24 h
[10] = 5.6 mg/kg i.p. twice daily, from 48 h
[11] = 16.7 mg/kg i.p. twice daily, from 6 h
[12] = 16.7 mg/kg i.p. twice daily, from 24 h
[13] = 16.7 mg/kg i.p. twice daily, from 48 h

**Q.** With Nc1nc(O)c2ncn(COC(CO)CO)c2n1 [Ganciclovir (DHPG), reference compound] as the molecule, how does the CC50 [1] read?
**A.** > 100000 nM

**Q.** And the IC50 (HCMV DNA synthesis)?
**A.** 1200 nM

**Q.** And the “MDD (Mean Day of Death)” value (MCMV; [2])?
**A.** 4.6

**Q.** And the “Mortality Percent” value (MCMV; [2])?
**A.** 93%

**Q.** And the “MDD (Mean Day of Death)” value (MCMV; [3])?
**A.** 5.4

**Q.** What about the “Mortality Percent” value (MCMV; [3]) of the same molecule?
**A.** 80%

**Q.** And the “MDD (Mean Day of Death)” value (MCMV; [4])?
**A.** 5.3

**Q.** And the “Mortality Percent” value (MCMV; [4])?
**A.** 93%

**Q.** And the “MDD (Mean Day of Death)” value (MCMV; [5])?
**A.** 5.4

**Q.** And the “Mortality Percent” value (MCMV; [5])?
**A.** 33%

**Q.** What about the “MDD (Mean Day of Death)” value (MCMV; [6]) of the same molecule?
**A.** 4.9

**Q.** And the “Mortality Percent” value (MCMV; [6])?
**A.** 80%

**Q.** And the “MDD (Mean Day of Death)” value (MCMV; [7])?
**A.** 4.9

**Q.** And the “Mortality Percent” value (MCMV; [7])?
**A.** 73%

**Q.** And the “MDD (Mean Day of Death)” value (MCMV; [8])?
**A.** 4.2

**Q.** And the “Mortality Percent” value (MCMV; [8])?
**A.** 33%

**Q.** What about the “MDD (Mean Day of Death)” value (MCMV; [9]) of the same molecule?
**A.** 5.3

**Q.** What about the “Mortality Percent” value (MCMV; [9]) of the same molecule?
**A.** 47%

**Q.** What about the “MDD (Mean Day of Death)” value (MCMV; [10]) of the same molecule?
**A.** 5.5

**Q.** What about the “Mortality Percent” value (MCMV; [10]) of the same molecule?
**A.** 67%

**Q.** What about the “MDD (Mean Day of Death)” value (MCMV; [11]) of the same molecule?
**A.** 3.8

**Q.** And the “Mortality Percent” value (MCMV; [11])?
**A.** 27%

**Q.** What about the “MDD (Mean Day of Death)” value (MCMV; [12]) of the same molecule?
**A.** 5.3

**Q.** What about the “Mortality Percent” value (MCMV; [12]) of the same molecule?
**A.** 47%

**Q.** What about the “MDD (Mean Day of Death)” value (MCMV; [13]) of the same molecule?
**A.** 5.5

**Q.** And the “Mortality Percent” value (MCMV; [13])?
**A.** 53%

From patent publication USRE36187E, “Acyclic pyrrolo [2,3-d]pyrimidine analogs as antiviral agents” (The Regents of the University of Michigan, priority 1994, dated 1999)
